Test results from the supplement of paper PMC10307832.

How the values were obtained:
Assay in all cases: relative viability (nuclei count vs DMSO), 5 days (fraction); higher = more cells survive
[1] = compound: CCN1C(=O)C2=CC(=C(N=C2N(C1=O)C3CC3)N)C(=O)N + O=C(CCCCCCC(=O)Nc1ccccc1)NO [Vorinostat] (partner 1 µM)
Summary of the method: (§1)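 Lung cancer cell lines, seeded in 1536-well plates, were treated the following day by pin tool with a single drug or with five library-drug doses (not always all listed) in √10 steps on top of a fixed anchor-drug dose. Cells were fixed and nuclei stained in one step after 5 days, and nuclei were counted. Relative viability is the nuclei count for treated wells divided by that for vehicle wells, reported as medians of duplicate plates.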

[2] = compound: CCN1C(=O)C2=CC(=C(N=C2N(C1=O)C3CC3)N)C(=O)N + C[C@@H](Oc1cc(-c2cnn(C3CCNCC3)c2)cnc1N)c1c(Cl)ccc(F)c1Cl [Crizotinib] (partner 1 µM)
Summary of the method: as §1

[3] = compound: CCN1C(=O)C2=CC(=C(N=C2N(C1=O)C3CC3)N)C(=O)N + C[C@]1(O)C[C@@H](c2nc(-c3ccc4ccc(-c5ccccc5)nc4c3)c3c(N)nccn32)C1 [Linsitinib] (partner 1 µM)
Summary of the method: as §1

[4] = compound: CCN1C(=O)C2=CC(=C(N=C2N(C1=O)C3CC3)N)C(=O)N + CCNC(=O)c1noc(-c2cc(C(C)C)c(O)cc2O)c1-c1ccc(CN2CCOCC2)cc1 [Luminespib] (partner 0.01 µM)
Summary of the method: as §1

[5] = compound: CCN1C(=O)C2=CC(=C(N=C2N(C1=O)C3CC3)N)C(=O)N
Summary of the method: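 Lung cancer cell lines were seeded into 1536-well plates, kept overnight at 37 °C and pinned with five library-drug doses (not always all listed) spaced by √10. After 5 days, nuclei were Hoechst-stained, imaged at 4× and counted with MetaXpress. Viability is treated-well nuclei over vehicle-well nuclei, taken as a median across plates. Plates needed control CV below 25% and at least one doubling.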

Cell Line | relative viability ([1]; first compound 0.253 µM) | relative viability ([1]; first compound 0.8 µM) | relative viability ([1]; first compound 2.53 µM) | relative viability ([1]; first compound 8 µM) | relative viability ([2]; first compound 0.253 µM) | relative viability ([2]; first compound 0.8 µM) | relative viability ([2]; first compound 2.53 µM) | relative viability ([2]; first compound 8 µM) | relative viability ([3]; first compound 0.253 µM) | relative viability ([3]; first compound 0.8 µM) | relative viability ([3]; first compound 2.53 µM) | relative viability ([3]; first compound 8 µM) | relative viability ([4]; first compound 0.253 µM) | relative viability ([4]; first compound 0.8 µM) | relative viability ([4]; first compound 2.53 µM) | relative viability ([4]; first compound 8 µM) | relative viability ([5]; 0.253 µM) | relative viability ([5]; 0.8 µM) | relative viability ([5]; 2.53 µM) | relative viability ([5]; 8 µM)
NCI-H520 | 0.719 | 0.655 | 0.717 | 0.817 | 0.698 | 0.64 | 0.645 | 1.29 | 0.938 | 0.951 | 0.961 | 1.11 | 0.236 | 0.201 | 0.246 | 0.3 | 0.985 | 1.02 | 0.972 | 0.904
NCI-H596 | 0.582 | 0.626 | 0.614 | 0.571 | 1.05 | 0.984 | 1.08 | 0.948 | 0.991 | 1.11 | 0.926 | 1.18 | 1.01 | 0.884 | 0.941 | 1.14 | 0.933 | 0.984 | 1.06 | 0.971
NCI-H647 | 0.448 | 0.477 | 0.557 | 0.862 | 0.869 | 0.906 | 0.948 | 1.26 | 1.11 | 0.995 | 1.08 | 1.09 | 0.16 | 0.129 | 0.18 | 0.14 | 1.02 | 0.896 | 0.993 | 0.924
NCI-H650 | 0.565 | 0.313 | 0.408 | 0.421 | 0.832 | 0.721 | 0.615 | 0.716 | 0.949 | 0.636 | 0.957 | 0.697 | 0.66 | 0.821 | 0.712 | 0.78 | 0.955 | 0.916 | 0.962 | 0.849
NCI-H661 | 0.758 | 0.788 | 0.748 | 0.803 | 1.05 | 1.05 | 0.987 | 1.06 | 0.568 | 0.636 | 0.558 | 0.603 | 0.922 | 0.904 | 0.898 | 0.904 | 1.03 | 0.991 | 0.972 | 0.961
NCI-H727 | 1.27 | 1.11 | 1.26 | 1.07 | 0.899 | 0.797 | 0.843 | 0.882 | 0.297 | 0.354 | 0.282 | 0.272 | 0.238 | 0.309 | 0.394 | 0.321 | 0.98 | 0.892 | 0.976 | 0.828
NCI-H838 | 0.756 | 0.694 | 0.692 | 0.752 | 0.868 | 0.817 | 0.74 | 0.717 | 1.06 | 0.895 | 0.974 | 0.99 | 0.262 | 0.334 | 0.214 | 0.336 | 0.99 | 0.965 | 0.923 | 0.96
NCI-H1355 | 0.626 | 0.662 | 0.636 | 0.674 | 1.12 | 1.05 | 1.02 | 1.1 | 0.846 | 0.891 | 0.808 | 0.687 | 0.652 | 0.887 | 0.761 | 0.753 | 1 | 0.998 | 0.992 | 0.973
